# Measured values taken from patent US8207176B2 (Glaxo Group Limited, priority 2005, dated 2012).
# Counter-ions that a name gives are not always drawn.
# Assays:
# [1] = molecular target: T1, Recombinant human p38α (MKK6-activated) (Homo sapiens, UniProt Q16539); assay: Time-resolved fluorescence resonance energy transfer (TR-FRET) kinase assay (standard or low volume); format: biochemical; design: key: Compounds are considered active in this assay if they demonstrate a pIC50 of greater than 4.6 up to about a pIC50 of greater than 10.0; conditions: MKK6-activated p38α 100 pM, GST-ATF2 400 nM, 120 minutes at room temperature; either assay format
# T1 construct: His; made in house
# T1 sequence (Q16539 whole entry): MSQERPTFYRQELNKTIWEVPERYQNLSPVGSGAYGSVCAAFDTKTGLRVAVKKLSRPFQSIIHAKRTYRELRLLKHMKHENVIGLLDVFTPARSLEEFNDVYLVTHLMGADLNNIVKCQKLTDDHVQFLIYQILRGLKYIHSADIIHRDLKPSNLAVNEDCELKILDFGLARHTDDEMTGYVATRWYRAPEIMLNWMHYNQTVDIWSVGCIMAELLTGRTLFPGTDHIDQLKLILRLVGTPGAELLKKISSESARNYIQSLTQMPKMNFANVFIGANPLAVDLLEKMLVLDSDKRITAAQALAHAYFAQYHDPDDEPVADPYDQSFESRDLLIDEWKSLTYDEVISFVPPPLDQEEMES
# Experimental: It is noted that there are two assay formats shown above for the Fluorescence anisotropy kinase binding assay. The only difference between these two assays is the volume used and the plate type. […] The results described herein may have been performed in either assay format and are not differentiated as to which. […] TR-FRET Assay Time-Resolved Fluorescence Resonance Energy Transfer Kinase Standard Assay Recombinant human p38α was expressed as a His-tagged protein. To activate this protein, 3 μM unactivated p38α was incubated in 200 mM Hepes pH 7.4, 625 mM NaCl, 1 mM DTT with 27 nM active MKK6 (Upstate), 1 mM ATP and 10 mM MgCl2 The activity of the MKK6-activated p38α was assessed using a time-resolved fluorescence resonance energy transfer (TR-FRET) assay. Biotinylated-GST-ATF2 (residues 19-96, 400 nM final), ATP ([…]) and MgCl2 (5 mM final) in assay buffer (40 mM HEPES pH 7.4, 1 mM DTT) were added to wells containing 1 ul of various concentrations of compound or DMSO vehicle (3% final) in NUNC 384 well black plate. The reaction was initiated by the addition of MKK6-activated p38 (100 pM final) to give a total volume of 30 ul. The reaction was incubated for 120 minutes at room temperature, then terminated by the addition of 15 μl of 100 mM EDTA pH 7.4. Detection reagent (15 μl) in buffer (100 mM HEPES pH 7.4, 150 mM NaCl, 0.1% w/v BSA, 1 mM DTT) containing antiphosphothreonine-ATF2-71 polyclonal antibody (Cell Signalling Technology, Beverly Mass., USA) labelled with W-1024 europium chelate (Wallac OY, Turku, Finland), and APC-labelled streptavidin (Prozyme, San Leandro, Calif., USA) was added and the reaction was further incubated for 60 minutes at room temperature. The degree of phosphorylation of GST-ATF2 was measured using a Packard Discovery plate reader (Perkin-Elmer Life Sciences, Pangbourne, UK) as a ratio of specific 665 nm energy transfer signal to reference europium 620 nm signal. Time-Resolved Fluorescence Resonance Energy Transfer Kinase Low Volume Assay Recombinant human p38α was expressed as a His-tagged protein. To activate this protein, 3 μM unactivated p38α was incubated in 200 mM Hepes pH7.4, 625 mM NaCl, 1 mM DTT with 27 nM active MKK6 (Upstate), 1 mM ATP and 10 mM MgCl2 The activity of the MKK6-activated p38α was assessed using a time-resolved fluorescence resonance energy transfer (TR-FRET) assay. Biotinylated-GST-ATF2 (residues 19-96, 400 nM final), ATP (125 μM final) and MgCl2 ([…]) in assay buffer (40 mM HEPES pH 7.4, 1 mM DTT) were added to wells containing 0.1 μl of various concentrations of compound or DMSO vehicle (1.7% final) in Greiner low volume 384 well black plate. The reaction was initiated by the addition of MKK6-activated p38α (100 pM final) to give a total volume of 6 μl. The reaction was incubated for 120 minutes at room temperature, then terminated by the addition of 3 μl of detection reagent in buffer (100 mM HEPES pH 7.4, 150 mM NaCl, 0.1% w/v BSA, 1 mM DTT, 100 mM EDTA) containing antiphosphothreonine-ATF2-71 polyclonal antibody (Cell Signalling Technology, Beverly Mass., USA) labelled with W-1024 europium chelate (Wallac OY, Turku, Finland), and APC-labelled streptavidin (Prozyme, San Leandro, Calif., USA). The reaction was further incubated for 60 minutes at room temperature. The degree of phosphorylation of GST-ATF2 was measured using a BMG Rubystar plate reader (BMG, UK) as a ratio of specific 665 nm energy transfer signal to reference europium 620 nm signal. It is noted that there are two assay formats shown above for the Time-resolved fluorescence resonance energy transfer kinase assay. The only difference between these two assays is the volume used and the plate type. […] The results described herein may have been performed in either assay format and are not differentiated as to which. […] For purposes herein the HTRF assay and the Fluorescence anisotropy kinase binding assay: […]
# [2] = system: influx of neutrophils to the lung in LPS-challenged rats; assay: Rat LPS neutrophilia model; format: in vivo; conditions: intratracheal, LPS aerosol 100 ug/ml 15 min, lavage 4 hours later, in at least one of the range of conditions tested, significant p<0.05, nonsignificant p>0.05
# Procedure, shortened: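 Compound was given intratracheally (200 ul, suspension or dry powder) 15 min–24 hours before a 15 min aerosol of LPS (100 ug/ml). Bronchoalveolar lavage was taken 4 hours after challenge for differential cell counts. Values are % inhibition of neutrophils versus no-compound controls at a given concentration and pretreat time.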
Compound,"pIC50, reported as active [1]",inhibition of neutrophilia (neutrophil levels in lung lavage relative to no compound controls) [2]
"Cc1ccc(NC(=O)c2ccc(Cl)nc2)cc1-c1nc(N2CCC(N)CC2)nc2c1ccc(=O)n2-c1c(F)cccc1F [Example 15, N-{3-[2-(4-amino-1-piperidinyl)-8-(2,6-difluorophenyl)-7-oxo-7,8-dihydropyrido[2,3-d]pyrimidin-4-yl]-4-methylphenyl}-6-chloro-3-pyridinecarboxamide]",active,
"CCN(CC)CCCNc1nc(-c2cc(C(=O)O)ccc2C)c2ccc(=O)n(-c3c(F)cccc3F)c2n1 [118(a), 3-[2-{[3-(diethylamino)propyl]amino}-8-(2,6-difluorophenyl)-7-oxo-7,8-dihydropyrido[2,3-d]-pyrimidin-4-yl]-4-methylbenzoic acid]",active,
"CNC1CCN(c2nc(-c3cc(C(=O)NC(C)C)ccc3C)c3ccc(=O)n(-c4c(F)cccc4F)c3n2)CC1 [113(b), 3-{8-(2,6-difluorophenyl)-2-[4-(methylamino)-1-piperidinyl]-7-oxo-7,8-dihydropyrido[2,3-d]pyrimidin-4-yl}-4-methyl-N-(1-methylethyl)benzamide]",active,statistically nonsignificant inhibition
"Cc1ccc(NC(=O)c2ccsc2)cc1-c1nc(NC2CC(C)(C)NC(C)(C)C2)nc2c1ccc(=O)n2-c1c(F)cccc1F [31(e), N-(3-{8-(2,6-difluorophenyl)-7-oxo-2-[(2,2,6,6-tetramethyl-4-piperidinyl)amino]-7,8-dihydropyrido[2,3-d]pyrimidin-4-yl}-4-methylphenyl)-3-thiophenecarboxamide]",active,statistically significant inhibition
"CCN(CC)CCCNc1nc(-c2cccc(C(=O)NC)c2)c2ccc(=O)n(-c3c(F)cccc3F)c2n1 [193(b), 3-[2-{[3-(diethylamino)propyl]amino}-8-(2,6-difluorophenyl)-7-oxo-7,8-dihydropyrido[2,3-d]pyrimidin-4-yl]-N-methylbenzamide]",active,
"CCN(CC)CCCNc1nc(-c2cccc(C(=O)Nc3nccs3)c2C)c2ccc(=O)n(-c3c(F)cccc3F)c2n1 [150(d), 3-[2-{[3-(diethylamino)propyl]amino}-8-(2,6-difluorophenyl)-7-oxo-7,8-dihydropyrido[2,3-d]pyrimidin-4-yl]-2-methyl-N-1,3-thiazol-2-ylbenzamide]",active,
"CNC1CCN(c2nc(-c3cc(C(=O)Nc4ccc(F)cc4)ccc3C)c3ccc(=O)n(-c4c(F)cccc4F)c3n2)CC1 [114(b), 3-{8-(2,6-difluorophenyl)-2-[4-(methylamino)-1-piperidinyl]-7-oxo-7,8-dihydropyrido[2,3-d]pyrimidin-4-yl}-N-(4-fluorophenyl)-4-methylbenzamide]",active,
"Cc1ccc(NC(=O)c2cccs2)cc1-c1nc(NC2CC(C)(C)NC(C)(C)C2)nc2c1ccc(=O)n2-c1c(F)cccc1F [Example 9, N-(3-{8-(2,6-difluorophenyl)-7-oxo-2-[(2,2,6,6-tetramethyl-4-piperidinyl)amino]-7,8-dihydropyrido[2,3-d]pyrimidin-4-yl}-4-methylphenyl)-2-thiophenecarboxamide]",active,
"Cc1ccc(C(=O)NC(C)C)cc1-c1nc(NCc2ncc[nH]2)nc2c1ccc(=O)n2-c1c(F)cccc1F [Example 74, 3-{8-(2,6-difluorophenyl)-2-[(1H-imidazol-2-ylmethyl)amino]-7-oxo-7,8-dihydropyrido[2,3-d]pyrimidin-4-yl}-4-methyl-N-(1-methylethyl)benzamide]",active,
"CCN(CC)CCCNc1nc(-c2cc(C(=O)NC(C)C)ccc2C)c2ccc(=O)n(-c3c(F)cccc3F)c2n1 [118(b), 3-[2-{[3-(diethylamino)propyl]amino}-8-(2,6-difluorophenyl)-7-oxo-7,8-dihydropyrido[2,3-d]pyrimidin-4-yl]-4-methyl-N-(1-methylethyl)benzamide]",active,
"Cc1ccc(C(=O)NC2CC2)cc1-c1nc(NC(CO)CO)nc2c1ccc(=O)n2-c1c(F)cccc1F [Example 36, N-cyclopropyl-3-(8-(2,6-difluorophenyl)-2-{[2-hydroxy-1-(hydroxymethyl)ethyl]-amino}-7-oxo-7,8-dihydropyrido[2,3-d]pyrimidin-4-yl)-4-methylbenzamide]",active,
"Cc1ccc(C(=O)O)cc1-c1nc(N2CCC(N3CCC(C)CC3)CC2)nc2c1ccc(=O)n2-c1c(F)cccc1F [163(b), 3-[8-(2,6-difluorophenyl)-2-(4-methyl-1,4′-bipiperidin-1′-yl)-7-oxo-7,8-dihydropyrido[2,3-d]pyrimidin-4-yl]-4-methylbenzoic acid]",active,
"Cc1ccc(NC(=O)c2cccs2)cc1-c1nc(NCc2ncc[nH]2)nc2c1ccc(=O)n2-c1c(F)cccc1F [Example 10, N-(3-{8-(2,6-difluorophenyl)-2-[(1H-imidazol-2-ylmethyl)amino]-7-oxo-7,8-dihydropyrido[2,3-d]pyrimidin-4-yl}-4-methylphenyl)-2-thiophenecarboxamide]",active,
"CCCNC(=O)c1ccc(-c2nc(NCCCN(CC)CC)nc3c2ccc(=O)n3-c2c(F)cccc2F)cc1 [188(b), 4-[2-{[3-(diethylamino)propyl]amino}-8-(2,6-difluorophenyl)-7-oxo-7,8-dihydropyrido[2,3-d]pyrimidin-4-yl]-N-propylbenzamide]",active,
"CCN(CC)CCCNc1nc(-c2cc(C(=O)O)cc(F)c2C)c2ccc(=O)n(-c3c(F)cccc3F)c2n1 [179(b), 3-[2-{[3-(diethylamino)propyl]amino}-8-(2,6-difluorophenyl)-7-oxo-7,8-dihydropyrido[2,3-d]pyrimidin-4-yl]-5-fluoro-4-methylbenzoic acid trifluoroacetate]",active,
"CCN(CC)CCCNc1nc(-c2cccc(C(=O)O)c2)c2ccc(=O)n(-c3c(F)cccc3F)c2n1 [193(a), 3-[2-{[3-(diethylamino)propyl]amino}-8-(2,6-difluorophenyl)-7-oxo-7,8-dihydropyrido[2,3-d]pyrimidin-4-yl]benzoic acid]",active,
"CCN(CC)CCCNc1nc(-c2cc(C(=O)NC(C)C)cc(F)c2C)c2ccc(=O)n(-c3c(F)cccc3F)c2n1 [179(c), 3-[2-{[3-(diethylamino)propyl]amino}-8-(2,6-difluorophenyl)-7-oxo-7,8-dihydropyrido[2,3-d]pyrimidin-4-yl]-5-fluoro-4-methyl-N-(1-methylethyl)benzamide]",active,
